Measurements from the NIST ThermoML archive (doi:10.1016/j.jct.2005.12.012).
Where “and” joins values, the source holds several entries; their conditions need not be identical. Equal values may be shown once. Numbers after ± are expanded uncertainties.

Conditions: Crystal

Compound: [Cl][Fe]([Cl])[Cl] [ferric chloride]
- vapor or sublimation pressure (383.9 K): 2.16e-05 ± 4.4e-06 kPa
- vapor or sublimation pressure (386.3 K): 1.586e-05 ± 3.3e-06 kPa and 2.159e-05 ± 4.4e-06 kPa
- vapor or sublimation pressure (389.3 K): 4.466e-05 ± 1e-05 kPa
- vapor or sublimation pressure (389.6 K): 3.81e-05 ± 7.8e-06 kPa
- vapor or sublimation pressure (389.7 K): 3.88e-05 ± 8e-06 kPa
- vapor or sublimation pressure (390.4 K): 3.533e-05 ± 7.1e-06 kPa
- vapor or sublimation pressure (392 K): 3.693e-05 ± 7.7e-06 kPa
- vapor or sublimation pressure (392.7 K): 6.293e-05 ± 1.4e-05 kPa
- vapor or sublimation pressure (393.8 K): 8.506e-05 ± 1.7e-05 kPa
- vapor or sublimation pressure (394.2 K): 6.506e-05 ± 1.3e-05 kPa
- vapor or sublimation pressure (394.8 K): 9.106e-05 ± 1.8e-05 kPa
- vapor or sublimation pressure (394.9 K): 4.68e-05 ± 9.4e-06 kPa and 7.493e-05 ± 1.5e-05 kPa
- vapor or sublimation pressure (395.1 K): 5.706e-05 ± 1.3e-05 kPa
- vapor or sublimation pressure (395.4 K): 7.039e-05 ± 1.7e-05 kPa
- vapor or sublimation pressure (396.6 K): 7.053e-05 ± 1.4e-05 kPa
- vapor or sublimation pressure (398 K): 6.426e-05 ± 1.3e-05 kPa
- vapor or sublimation pressure (398.6 K): 0.0001123 ± 2.8e-05 kPa
- vapor or sublimation pressure (398.9 K): 0.0001423 ± 3.5e-05 kPa
- vapor or sublimation pressure (399 K): 0.0001348 ± 2.9e-05 kPa and 0.0001191 ± 2.4e-05 kPa
- vapor or sublimation pressure (401.2 K): 0.0001035 ± 2.1e-05 kPa
- vapor or sublimation pressure (403 K): 0.0001712 ± 3.5e-05 kPa and 0.0001621 ± 3.5e-05 kPa and 0.0001703 ± 3.5e-05 kPa
- vapor or sublimation pressure (403.2 K): 0.0002573 ± 5.2e-05 kPa
- vapor or sublimation pressure (403.3 K): 0.0001812 ± 3.8e-05 kPa
- vapor or sublimation pressure (404.5 K): 0.0002585 ± 5.2e-05 kPa
- vapor or sublimation pressure (404.6 K): 0.000249 ± 5e-05 kPa
- vapor or sublimation pressure (407.7 K): 0.0003298 ± 7e-05 kPa
- vapor or sublimation pressure (408.6 K): 0.000386 ± 7.7e-05 kPa and 0.0003425 ± 6.8e-05 kPa
- vapor or sublimation pressure (409.1 K): 0.000328 ± 6.9e-05 kPa
- vapor or sublimation pressure (409.3 K): 0.0003058 ± 6.3e-05 kPa
- vapor or sublimation pressure (409.8 K): 0.0004945 ± 0.00012 kPa
- vapor or sublimation pressure (409.9 K): 0.0003822 ± 8.1e-05 kPa
- vapor or sublimation pressure (412.7 K): 0.0003274 ± 6.6e-05 kPa
- vapor or sublimation pressure (413.5 K): 0.0004797 ± 0.00011 kPa
- vapor or sublimation pressure (413.9 K): 0.0005921 ± 0.00013 kPa and 0.0007087 ± 0.00015 kPa
- vapor or sublimation pressure (414.1 K): 0.0005326 ± 0.00011 kPa
- vapor or sublimation pressure (414.6 K): 0.0007097 ± 0.00014 kPa
- vapor or sublimation pressure (416.4 K): 0.0004961 ± 0.0001 kPa and 0.0004838 ± 9.9e-05 kPa
- vapor or sublimation pressure (418.4 K): 0.001063 ± 0.00043 kPa
- vapor or sublimation pressure (419.3 K): 0.0007021 ± 0.00015 kPa and 0.001331 ± 0.00057 kPa
- vapor or sublimation pressure (419.4 K): 0.0008229 ± 0.00017 kPa
- vapor or sublimation pressure (419.8 K): 0.0006339 ± 0.00016 kPa
- vapor or sublimation pressure (419.9 K): 0.0009366 ± 0.00019 kPa
- vapor or sublimation pressure (421.9 K): 0.0009899 ± 0.0002 kPa
- vapor or sublimation pressure (422.2 K): 0.001008 ± 0.0004 kPa
- vapor or sublimation pressure (423.6 K): 0.001647 ± 0.00073 kPa
- vapor or sublimation pressure (424 K): 0.00111 ± 0.00045 kPa
- vapor or sublimation pressure (424.2 K): 0.001053 ± 0.00043 kPa
- vapor or sublimation pressure (424.8 K): 0.001549 ± 0.00068 kPa
- vapor or sublimation pressure (424.9 K): 0.001033 ± 0.00042 kPa
- vapor or sublimation pressure (425.6 K): 0.001455 ± 0.00063 kPa
- vapor or sublimation pressure (426.4 K): 0.001488 ± 0.00065 kPa
- vapor or sublimation pressure (426.8 K): 0.001202 ± 0.00052 kPa
- vapor or sublimation pressure (428.8 K): 0.001767 ± 0.00091 kPa and 0.001985 ± 0.00097 kPa
- vapor or sublimation pressure (429.2 K): 0.002648 ± 0.0014 kPa
- vapor or sublimation pressure (430.9 K): 0.002751 ± 0.0013 kPa
- vapor or sublimation pressure (431.6 K): 0.001895 ± 0.00087 kPa
- vapor or sublimation pressure (434 K): 0.003812 ± 0.002 kPa
- vapor or sublimation pressure (434.4 K): 0.003132 ± 0.0016 kPa
- vapor or sublimation pressure (434.5 K): 0.004177 ± 0.0022 kPa
- vapor or sublimation pressure (439.7 K): 0.006419 ± 0.0036 kPa
- vapor or sublimation pressure (445.2 K): 0.008538 ± 0.005 kPa
